Results: PMC12396409, “Screening and hit evaluation of a microbial metabolite library against the pathogenic Plasmodium falciparum and Toxoplasma gondii parasites” (International Journal for Parasitology: Drugs and Drug …, 2025)
Like-named read-outs stand apart in the source and are kept apart here.

Tests used:
[1] = system: P. falciparum 3D7 parasites; assay: P. falciparum growth inhibition assay, 2-cycle (120 h treatment), delayed-death screen and dose-response; type: cell-based, Plasmodium falciparum; conditions: P. falciparum; for Pf_120h_%Growth_Rep1 / Pf_120h_%Growth_Rep2 / activity at 2 µg/mL: screen at 2 μg/mL; for activity at 2 µg/mL: Plasmodium falciparum
[2] = system: P. falciparum 3D7 parasites; assay: P. falciparum growth inhibition assay, 1-cycle (72 h treatment), SYBR DNA staining (library screen at 2 μg/mL and dose-response); type: cell-based, Plasmodium falciparum; conditions: P. falciparum, 72 h; for Pf_72h_%Growth_Rep1 / Pf_72h_%Growth_Rep2 / activity at 2 µg/mL: screen at 2 μg/mL; for activity at 2 µg/mL: Plasmodium falciparum
[3] = system: T. gondii RH strain (RH-Tub-eYFP) tachyzoites; assay: microbe, parasite or virus in culture; type: cell-based, Toxoplasma gondii
[4] = T. gondii, 72 h, screen at 2 μg/mL, replicate 1
[5] = T. gondii, 72 h, screen at 2 μg/mL, replicate 2
[6] = 3D7, 120 h, 120 h, replicate 1, read-out: Pf_120h_%Growth_Rep1
[7] = 3D7, 120 h, 120 h, replicate 2, read-out: Pf_120h_%Growth_Rep2
[8] = 3D7, 72 h, replicate 1, read-out: Pf_72h_%Growth_Rep1
[9] = 3D7, 72 h, replicate 2, read-out: Pf_72h_%Growth_Rep2
[10] = Toxoplasma gondii, 72 h, T. gondii, 72 h, screen at 2 μg/mL, replicate 1; read-out: Tg_72h_%Growth_Rep1
[11] = Toxoplasma gondii, 72 h, T. gondii, 72 h, screen at 2 μg/mL, replicate 2; read-out: Tg_72h_%Growth_Rep2
[12] = 3D7, 120 h, replicate 1, read-out: Pf_120h_%Growth_Rep1
[13] = 3D7, 120 h, replicate 2, read-out: Pf_120h_%Growth_Rep2
[14] = 3D7, replicate 1, read-out: Pf_72h_%Growth_Rep1
[15] = 3D7, replicate 2, read-out: Pf_72h_%Growth_Rep2

SMILES	Pf_120h_%Growth_Rep1 ([1]; 120 h, replicate 1) [%]	Pf_120h_%Growth_Rep2 ([1]; 120 h, replicate 2) [%]	Pf_72h_%Growth_Rep1 ([2]; replicate 1) [%]	Pf_72h_%Growth_Rep2 ([2]; replicate 2) [%]	Tg_72h_%Growth_Rep1 [3, 4] [%]	Tg_72h_%Growth_Rep2 [3, 5] [%]	percent parasite growth at 2 µg/mL [3, 10] [%]	percent parasite growth at 2 µg/mL [3, 11] [%]	other results
COc1cc(/C=N/O)nc(-c2ccccn2)c1 [Caerulomycin]	2.50	-6.36	5.29	5.34	2.08	0.20	–	–	–
O=C(O)/C=C/c1ccc(O)c(O)c1 [Caffeic acid]	–	–	–	–	–	–	101	88.3	activity at 2 µg/mL [1, 6]: 144%; activity at 2 µg/mL [1, 7]: 88.4%; activity at 2 µg/mL [2, 8]: 83.7%; activity at 2 µg/mL [2, 9]: 86%
CNc1ccc2oc(C[C@H]3O[C@@]4(CC[C@H]3C)O[C@H]([C@H](C)C(=O)c3ccc[nH]3)[C@H](C)C[C@H]4C)nc2c1C(=O)O [Calcimycin]	–	–	–	–	–	–	1.82	1.52	activity at 2 µg/mL [1, 6]: 11.6%; activity at 2 µg/mL [1, 7]: 3.04%; activity at 2 µg/mL [2, 8]: 13.1%; activity at 2 µg/mL [2, 9]: 6.23%
COc1c(C[C@@H](C)OC(=O)Oc2ccc(O)cc2)c2c3c(C[C@@H](C)OC(=O)c4ccccc4)c(OC)c(=O)c4c(O)cc(OC)c(c5c(OC)cc(O)c(c1=O)c52)c43 [Calphostin C]	–	–	–	–	–	–	–	–	activity at 2 µg/mL [1, 12]: 17%; activity at 2 µg/mL [1, 13]: 9.44%; activity at 2 µg/mL [2, 14]: 13.6%; activity at 2 µg/mL [2, 15]: 9.2%; percent parasite growth at 2 µg/mL ([3]; Toxoplasma gondii; T. gondii, 72 h, screen at 2 μg/mL, replicate 1; read-out: Tg_72h_%Growth_Rep1): 1%; percent parasite growth at 2 µg/mL ([3]; Toxoplasma gondii; T. gondii, 72 h, screen at 2 μg/mL, replicate 2; read-out: Tg_72h_%Growth_Rep2): 2.07%
O=C(O)c1nccc2c1[nH]c1ccccc12 [Carboline 1-carboxylic acid, β-]	166.51	96.73	89.67	90.01	4.34	7.03	–	–	–
C=C(C)[C@H](C)CC[C@](C)(O)[C@H]1CC[C@]2(C)[C@@H]1CC[C@@H]1[C@@]3(C)CC[C@H](O)C(C)(C)[C@@H]3CC[C@]12C [Carnaubadiol]	92.23	87.62	84.27	81.18	149.01	97.97	–	–	–
CC(=O)O.CC(=O)O.CC[C@H](C)C[C@H](C)CCCCCCCCC(=O)N[C@H]1C[C@@H](O)[C@@H](NCCN)NC(=O)[C@@H]2[C@@H](O)CCN2C(=O)[C@H]([C@H](O)CCN)NC(=O)[C@H]([C@H](O)[C@@H](O)c2ccc(O)cc2)NC(=O)[C@@H]2C[C@@H](O)CN2C(=O)[C@H]([C@@H](C)O)NC1=O [Caspofungin acetate]	148.27	78.66	37.83	84.89	95.80	93.96	–	–	–
NC(=O)C#CC(N)=O [Cellocidin]	151.65	95.14	102.17	89.58	79.59	92.91	–	–	–
CC(=O)C1=C(O)C=C2Oc3c(C(N)=O)c(O)cc(O)c3[C@]2(C)C1=O [Cercosporamide]	127.36	89.41	93.73	83.00	84.28	89.90	–	–	–
COc1c(CC(C)O)c2c3c(CC(C)O)c(OC)c(=O)c4c(O)cc5c(c6c(cc(O)c(c1=O)c62)OCO5)c43 (stereo not shown) [Cercosporin]	–	–	–	–	–	–	4.15	11.5	activity at 2 µg/mL [1, 12]: 7.99%; activity at 2 µg/mL [1, 13]: 4.28%; activity at 2 µg/mL [2, 14]: 9.71%; activity at 2 µg/mL [2, 15]: 9.49%
C/C=C/C/C=C/CCC(=O)[C@H]1O[C@H]1C(N)=O [Cerulenin]	–	–	–	–	–	–	79	81.8	activity at 2 µg/mL [1, 12]: 137%; activity at 2 µg/mL [1, 13]: 85.1%; activity at 2 µg/mL [2, 14]: 86.4%; activity at 2 µg/mL [2, 15]: 80.4%
CN1C(=O)[C@@]23C[C@]4([C@]56C[C@@]78SS[C@@](CO)(C(=O)N7[C@H]5Nc5ccccc56)N(C)C8=O)c5ccccc5N[C@@H]4N2C(=O)[C@]1(CO)SS3 [Chaetocin]	–	–	–	–	–	–	0.84	2.33	activity at 2 µg/mL [1, 6]: 16.4%; activity at 2 µg/mL [1, 7]: 23.8%; activity at 2 µg/mL [2, 8]: 10.9%; activity at 2 µg/mL [2, 9]: 11.2%
C/C1=C\[C@@H](C)C/C=C/[C@H]2[C@@H]3O[C@]3(C)[C@@H](C)[C@H]3[C@H](Cc4c[nH]c5ccccc45)NC(=O)[C@]32C(=O)/C=C/C(=O)[C@@H]1O [Chaetoglobosin A]	–	–	–	–	–	–	51.1	65.4	activity at 2 µg/mL [1, 6]: 17.4%; activity at 2 µg/mL [1, 7]: 22.2%; activity at 2 µg/mL [2, 8]: 10.6%; activity at 2 µg/mL [2, 9]: 0.38%
C[C@H]1C(=O)N2c3ccccc3[C@@]3(O)C[C@@H](n4cnc5ccccc5c4=O)C(=O)N1[C@@H]23 [Chaetominine]	101.17	95.94	81.47	84.79	140.61	97.41	–	–	–
CO[C@H]1[C@@H](O)[C@@H](C)O[C@H](O[C@H]2[C@H](Oc3cccc4c(O)c5c(=O)oc6ccc(C)c7c(=O)oc(c34)c5c67)O[C@H](C)[C@H](O)[C@@H]2O)[C@@H]1O [Chartreusin]	–	–	–	–	–	–	85.7	97.4	activity at 2 µg/mL [1, 6]: 144%; activity at 2 µg/mL [1, 7]: 96.8%; activity at 2 µg/mL [2, 8]: 101%; activity at 2 µg/mL [2, 9]: 88.7%
CC(=O)O[C@H]1CC[C@]2(C)[C@H]3CC[C@]4(C)Oc5cc(C)oc(=O)c5C[C@H]4[C@]3(C)CC[C@H]2C1(C)C [Chevalone B]	13.73	21.31	12.18	38.64	78.55	94.84	–	–	2) Growth (%) at 120 h ([1]; 2 μg/mL, 120 h): 17.52%; 3) Fold change (72 h/120 h) ([1]; growth at 72 h / growth at 120 h, 2 μg/mL): 1.5; 1) Growth (%) at 72 h ([2]; 2 μg/mL): 25.41%; Mean ([2]; 2 μg/mL, mean of both replicates, growth (% of control)): 25.41
CC(=O)O[C@H]1CC[C@]2(C)[C@H]3CC[C@]4(C)Oc5oc(C)cc(=O)c5C[C@H]4[C@]3(C)CC[C@H]2C1(C)C [Chevalone C]	145.74	96.88	92.41	79.15	84.01	91.63	–	–	–
Cc1cc(=O)c2c(o1)O[C@@]1(C)CC[C@@H]3[C@@]4(C)CC[C@H](O)C(C)(C)[C@@H]4CC[C@@]3(C)[C@@H]1C2 [Chevalone E]	162.52	100.96	103.28	92.51	83.71	88.30	–	–	–
CC(=O)OC[C@@H](NC(=O)C(Cl)Cl)[C@H](O)c1ccc([N+](=O)[O-])cc1 [Chloramphenicol acetate]	100.35	90.22	90.71	92.14	132.16	92.80	–	–	–
